{"source": "patent US20030225279A1", "about": "“Stavudine Polymorphic Form 1 process” (priority 2000, published 2003)", "key": {"[1]": {"assay": "Solubility in supercritical carbon dioxide", "type": "physicochemical", "settings": "supercritical carbon dioxide as antisolvent"}, "[2]": {"settings": "solid state, relative to Forms II and III; cited from earlier work"}}, "note": "Entries after “also recorded” stand apart in the source; their conditions may differ.", "data": [{"smiles": "Cc1cn([C@H]2C=C[C@@H](CO)O2)c(=O)[nH]c1=O", "note": "[Stavudine, 2′, 3′-didehydro-3′-deoxythymidine]", "values": [{"measurement": "solubility in supercritical carbon dioxide", "setting": "[1]", "value": "practically insoluble"}]}, {"smiles": "Cc1cn([C@H]2C=C[C@@H](CO)O2)c(=O)[nH]c1=O", "note": "[Form I, 2′, 3′-didehydro-3′-deoxythymidine]", "values": [{"measurement": "thermodynamic stability / transformation to other polymorphic forms", "setting": "[2]", "value": "stable and shows no transformations to other polymorphic forms; also recorded: most thermodynamically stable form, with no tendency for solid state conversion to the other Forms"}]}]}
